Data set [1] has as its system Cryptococcus neoformans. Put plainly: Synergistic antifungal activity against Cryptococcus neoformans clinical isolate HN15 assessed as fractional inhibitory concentration index incubated for 72 hrs in presence of Fluconazole by broth microdilution method. It is filed as functional. In general terms: Dilution methods test growth across graded concentrations, often in twofold steps.

In data set [2] the test system is Cryptococcus deuterogattii. Put plainly: Synergistic antifungal activity against Cryptococcus gattii WM178 assessed as fractional inhibitory concentration index incubated for 72 hrs in presence of Fluconazole by broth microdilution method. It is filed as functional, Cryptococcus gattii species complex.
The subject of data set [3] is Cryptococcus neoformans. Put plainly: Antifungal activity against Cryptococcus neoformans clinical isolate BJ3 assessed as fungal growth inhibition incubated for 72 hrs in presence of Fluconazole by broth microdilution method. It counts as functional.
Data set [4] is described as follows: Half life in Sprague-Dawley rat at 2 mg/kg,iv by LC-MS/MS analysis. It counts as ADME, organism-based. To be noted: in vivo.
Data set [5] is described as follows: Selectivity index, ratio of IC50 for human Caco-2 to MIC for antifungal activity against Cryptococcus neoformans. It is filed as toxicity. Particulars: Caco-2 cells, read-out: Selectivity Index.
Data set [6] deals with Cryptococcus neoformans. Put plainly: Antifungal activity against Cryptococcus neoformans clinical isolate 445 assessed as fungal growth inhibition incubated for 72 hrs in presence of Fluconazole by broth microdilution method. It is filed as functional.
Data set [7] deals with Candida tropicalis. Kind of data set: Antifungal activity against Candida tropicalis ATCC20026 assessed as fungal growth inhibition incubated for 48 hrs in presence of Fluconazole by broth microdilution method. It is filed as functional.
In data set [8] the test system is Cryptococcus neoformans. Kind of data set: Antifungal activity against Cryptococcus neoformans clinical isolate HN2-40 assessed as fungal growth inhibition incubated for 72 hrs in presence of Fluconazole by broth microdilution method. It counts as functional.
Data set [9] is described as follows: AUC (0 to infinitive) in Sprague-Dawley rat at 2 mg/kg,iv by LC-MS/MS analysis. On the set-up: time infinity, dose 2 mg/kg, route iv. It is filed as ADME, organism-based. To be noted: in vivo.
Data set [10] deals with Cryptococcus gattii. Put plainly: Antifungal activity against Cryptococcus gattii WM179 assessed as fungal growth inhibition incubated for 72 hrs in presence of Fluconazole by broth microdilution method. It counts as functional, Cryptococcus gattii species complex.
The test system of data set [11] is Cryptococcus neoformans. Put plainly: Antifungal activity against Cryptococcus neoformans clinical isolate HN17 assessed as fungal growth inhibition incubated for 72 hrs in presence of Fluconazole by broth microdilution method. It counts as functional.
Data set [12] relates to Cryptococcus gattii species complex. Put plainly: Synergistic antifungal activity against Cryptococcus gattii clinical isolate SCZ20024 assessed as fractional inhibitory concentration index incubated for 72 hrs in presence of Fluconazole by broth microdilution method. It is filed as functional.
Data set [13] has as its system Cryptococcus neoformans. Kind of data set: Antifungal activity against Cryptococcus neoformans clinical isolate 443 assessed as fungal growth inhibition incubated for 72 hrs in presence of Fluconazole by broth microdilution method. It counts as functional.
The nature of data set [14]: Oral bioavailability in Sprague-Dawley rat at 5 mg/kg by LC-MS/MS analysis. It counts as ADME, organism-based. To be noted: in vivo.
For data set [15], the system named is Cryptococcus neoformans. Kind of data set: Synergistic antifungal activity against Cryptococcus neoformans clinical isolate 445 assessed as fractional inhibitory concentration index incubated for 72 hrs in presence of Fluconazole by broth microdilution method. It is filed as functional.
Data set [16] in a line: Cytotoxicity against rabbit RBC assessed as cell growth inhibition incubated for 24 hrs by CCK-8 assay. Particulars: red blood cells. It counts as toxicity, cell-based, Oryctolagus cuniculus, Erythrocyte. Background: Tetrazolium dyes change colour on reduction, which living cells bring about.
Data set [17] can be described thus: Selectivity index, ratio of IC50 for rabbit RBC to MIC for antifungal activity against Cryptococcus neoformans. Particulars: red blood cells, read-out: Selectivity Index. It is filed as toxicity.
Another data set has as its system Nakaseomyces glabratus. Put plainly: Antifungal activity against Candida glabrata ATCC1182 assessed as fungal growth inhibition incubated for 48 hrs in presence of Fluconazole by broth microdilution method. It counts as functional.
Data set [18] deals with Cryptococcus neoformans. Kind of data set: Synergistic antifungal activity against Cryptococcus neoformans clinical isolate HN2 assessed as fractional inhibitory concentration index incubated for 72 hrs in presence of Fluconazole by broth microdilution method. It counts as functional.
Data set [19] concerns Cryptococcus deuterogattii. Kind of data set: Antifungal activity against Cryptococcus gattii WM178 assessed as fungal growth inhibition incubated for 72 hrs in presence of Fluconazole by broth microdilution method. It counts as functional, Cryptococcus gattii species complex.
The subject of the next data set is Candida albicans. Put plainly: Synergistic antifungal activity against Candida albicans SC5314 assessed as fractional inhibitory concentration index incubated for 48 hrs in presence of Fluconazole by broth microdilution method. It counts as functional.
The test system of data set [20] is Cryptococcus neoformans. Put plainly: Antifungal activity against Cryptococcus neoformans clinical isolate HN2 assessed as fungal growth inhibition incubated for 72 hrs in presence of Fluconazole by broth microdilution method. It is filed as functional.
The subject of data set [21] is Candida tropicalis. Kind of data set: Synergistic antifungal activity against Candida tropicalis ATCC20026 assessed as fractional inhibitory concentration index incubated for 48 hrs in presence of Fluconazole by broth microdilution method. It counts as functional.
The nature of data set [22]: Half life in Sprague-Dawley rat at 5 mg/kg,po by LC-MS/MS analysis. It is filed as ADME, organism-based. Particulars: in vivo.
The test system of data set [23] is Cryptococcus deuterogattii. Kind of data set: Antifungal activity against Cryptococcus gattii WM178 infected in Wax moth larvae assessed as survival rate at 10 mg/kg measured after 9 days in presence of Fluconazole by Kaplan-Meier method. It is filed as functional, Cryptococcus gattii species complex. Particulars: WM178, 216 h, time 9 day.
Data set [24] concerns the target Voltage-gated inwardly rectifying potassium channel KCNH2 (Homo sapiens, UniProt Q12809). Kind of data set: Inhibition of human […] potassium channel by automated patch clamp electrophysiology. It counts as toxicity. In general terms: In patch-clamp work, channel activity is measured electrically.
The subject of data set [25] is Cryptococcus gattii. Put plainly: Synergistic antifungal activity against Cryptococcus gattii WM179 assessed as fractional inhibitory concentration index incubated for 72 hrs in presence of Fluconazole by broth microdilution method. It counts as functional, Cryptococcus gattii species complex.
The test system of data set [26] is Cryptococcus neoformans. Kind of data set: Synergistic antifungal activity against Cryptococcus neoformans clinical isolate SH68 assessed as fractional inhibitory concentration index incubated for 72 hrs in presence of P163-0892 by broth microdilution method. It is filed as functional.
The test system of data set [27] is Cryptococcus neoformans. Put plainly: Antifungal activity against Cryptococcus neoformans clinical isolate 443 assessed as fungal growth inhibition incubated for 72 hrs in presence of P163-0892 by broth microdilution method. It is filed as functional.
The subject of data set [28] is Cryptococcus gattii species complex. Put plainly: Antifungal activity against Cryptococcus gattii E566 assessed as fungal growth inhibition incubated for 72 hrs in presence of P163-0892 by broth microdilution method. It counts as functional.
The subject of data set [29] is Cryptococcus neoformans. Put plainly: Synergistic antifungal activity against Cryptococcus neoformans clinical isolate 443 assessed as fractional inhibitory concentration index incubated for 72 hrs in presence of P163-0892 by broth microdilution method. It counts as functional.
Data set [30] has as its system Candida tropicalis. Put plainly: Antifungal activity against Candida tropicalis ATCC20026 assessed as fungal growth inhibition incubated for 48 hrs in presence of P163-0892 by broth microdilution method. It counts as functional.
For data set [31], the system named is Cryptococcus neoformans. Put plainly: Antifungal activity against Cryptococcus neoformans clinical isolate HN17 assessed as fungal growth inhibition incubated for 72 hrs in presence of P163-0892 by broth microdilution method. It counts as functional.
Data set [32] deals with Cryptococcus gattii species complex. Put plainly: Synergistic antifungal activity against Cryptococcus gattii clinical isolate SCZ20031 assessed as fractional inhibitory concentration index incubated for 72 hrs in presence of P163-0892 by broth microdilution method. It is filed as functional.
The subject of data set [33] is Cryptococcus deuterogattii. Put plainly: Antifungal activity against Cryptococcus gattii WM178 infected in Wax moth larvae assessed as survival rate at 10 mg/kg measured after 9 days in presence of P163-0892 by Kaplan-Meier method. It is filed as functional, Cryptococcus gattii species complex. Particulars: WM178, 216 h, time 9 day.
A further data set concerns Pichia kudriavzevii. Put plainly: Synergistic antifungal activity against Candida krusei ATCC2340 assessed as fractional inhibitory concentration index incubated for 48 hrs in presence of P163-0892 by broth microdilution method. It is filed as functional.
Data set [34] has as its system Cryptococcus neoformans. Kind of data set: Synergistic antifungal activity against Cryptococcus neoformans clinical isolate HN2-40 assessed as fractional inhibitory concentration index incubated for 72 hrs in presence of P163-0892 by broth microdilution method. It counts as functional.
Data set [35] has as its system Cryptococcus neoformans. Kind of data set: Antifungal activity against Cryptococcus neoformans clinical isolate 445 assessed as fungal growth inhibition incubated for 72 hrs in presence of P163-0892 by broth microdilution method. It counts as functional.
The subject of data set [36] is Cryptococcus neoformans. Put plainly: Synergistic antifungal activity against Cryptococcus neoformans clinical isolate 445 assessed as fractional inhibitory concentration index incubated for 72 hrs in presence of P163-0892 by broth microdilution method. It counts as functional.
Data set [37] concerns Cryptococcus gattii species complex. Put plainly: Antifungal activity against Cryptococcus gattii clinical isolate SCZ20031 assessed as fungal growth inhibition incubated for 72 hrs in presence of P163-0892 by broth microdilution method. It is filed as functional.

Each structure is given as a SMILES string.

Chain of Voltage-gated inwardly rectifying potassium channel KCNH2 (Q12809 whole entry): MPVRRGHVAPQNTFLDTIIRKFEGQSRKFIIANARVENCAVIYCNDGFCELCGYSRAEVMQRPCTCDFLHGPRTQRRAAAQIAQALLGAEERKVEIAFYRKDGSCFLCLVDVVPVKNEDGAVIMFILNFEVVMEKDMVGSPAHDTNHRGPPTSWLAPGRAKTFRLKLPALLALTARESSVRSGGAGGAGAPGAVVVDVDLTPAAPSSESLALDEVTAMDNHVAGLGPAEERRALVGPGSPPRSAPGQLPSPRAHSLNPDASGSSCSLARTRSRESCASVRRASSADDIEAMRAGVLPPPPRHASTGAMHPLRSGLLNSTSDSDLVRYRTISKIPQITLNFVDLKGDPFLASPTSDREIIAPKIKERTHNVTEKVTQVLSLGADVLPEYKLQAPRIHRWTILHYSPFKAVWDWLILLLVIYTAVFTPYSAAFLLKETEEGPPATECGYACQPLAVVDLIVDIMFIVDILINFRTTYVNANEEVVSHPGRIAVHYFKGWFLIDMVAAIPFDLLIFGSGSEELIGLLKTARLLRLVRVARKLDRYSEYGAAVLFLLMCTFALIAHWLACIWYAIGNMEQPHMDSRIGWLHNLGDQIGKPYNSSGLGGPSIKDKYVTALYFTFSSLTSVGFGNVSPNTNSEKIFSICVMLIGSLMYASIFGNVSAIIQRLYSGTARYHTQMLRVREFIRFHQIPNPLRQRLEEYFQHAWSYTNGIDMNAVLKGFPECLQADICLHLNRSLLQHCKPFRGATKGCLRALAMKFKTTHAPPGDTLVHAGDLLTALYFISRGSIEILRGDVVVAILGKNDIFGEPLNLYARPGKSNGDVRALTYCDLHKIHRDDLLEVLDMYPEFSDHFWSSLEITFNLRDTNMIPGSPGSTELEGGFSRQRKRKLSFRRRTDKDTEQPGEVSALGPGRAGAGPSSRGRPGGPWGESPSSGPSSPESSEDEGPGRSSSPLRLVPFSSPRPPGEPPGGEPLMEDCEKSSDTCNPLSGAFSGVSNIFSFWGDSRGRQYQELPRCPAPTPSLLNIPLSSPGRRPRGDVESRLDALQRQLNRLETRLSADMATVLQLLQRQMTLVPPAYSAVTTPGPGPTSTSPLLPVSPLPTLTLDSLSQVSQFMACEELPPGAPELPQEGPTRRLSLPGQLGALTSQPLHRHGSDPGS

For `CCCCNC(=O)c1c(O)c2sccc2n(Cc2ccccc2)c1=O`, the “fractional inhibitory concentration index (FICI)” value with Cryptococcus neoformans [1] is listed as 0.313; in data set [2], 0.25; in data set [12] it was 0.313; in the data set on Cryptococcus neoformans [15], 0.375; in the data set with Cryptococcus neoformans [18] it was 0.188; with Candida albicans, 1.008. The “fractional inhibitory concentration index (FICI)” value with Candida tropicalis [21] is 0.516; in the data set with Cryptococcus gattii [25], 0.25. The minimal inhibitory concentration (MIC) was found to be 0.0313 µg/mL in the data set with Cryptococcus neoformans [3]; 0.125 µg/mL with Cryptococcus neoformans [6]; 2 µg/mL in the data set on Candida tropicalis [7]; 0.0313 µg/mL in the data set with Cryptococcus neoformans [8]; 0.0625 µg/mL with Cryptococcus gattii [10]; 0.0313 µg/mL with Cryptococcus neoformans [11]. In addition, the MIC with Cryptococcus neoformans [13] came to 0.0313 µg/mL; in the data set with Nakaseomyces glabratus it was 16 µg/mL; in [19], 0.0625 µg/mL; in the data set on Cryptococcus neoformans [20] it was 0.0313 µg/mL. Moreover, the t1/2 in data set [4] turned out to be 7.61 h. Besides, the selectivity ratio in data set [5] and in data set [17] was greater than 256 each time. For the same molecule, the AUC in data set [9] came out at 749 ng·h/mL. Further, the bioavailability in data set [14] is 0.8%. For the same molecule, the IC50 at 24 h in data set [16] was greater than 256 µg/mL. Also, the half-life in data set [22] was 15.3 h. Further, the survival at 10 mg/kg in data set [23] was 70%. In data set [24], this molecule showed an IC50 of 23.4 µM.
In the case of `OC(Cn1cncn1)(Cn1cncn1)c1ccc(F)cc1F` [FLUCONAZOLE], the “fractional inhibitory concentration index (FICI)” value in the data set on Cryptococcus neoformans [26] worked out at 0.25; in the data set with Cryptococcus neoformans [29], 0.156; in data set [32], 0.25; with Pichia kudriavzevii, 0.563; with Cryptococcus neoformans [34], 0.188; in the data set on Cryptococcus neoformans [36], 0.375. The MIC with Cryptococcus neoformans [27] turned out to be 1 µg/mL; in data set [28], 0.5 µg/mL; in the data set on Candida tropicalis [30], 1 µg/mL; in the data set on Cryptococcus neoformans [31], 0.5 µg/mL; with Cryptococcus neoformans [35], 2 µg/mL; in [37] it was 1 µg/mL. Also, in data set [33], the survival at 10 mg/kg amounted to 70%.

The MIC is the smallest concentration in the dilution series that meets the test's criterion for growth inhibition. As usually defined, the AUC is concentration integrated over time. A low value points to less exposure. As a reminder, the bioavailability is dose-corrected exposure relative to a reference, in per cent. One may read the IC50 as the concentration needed to halve the response being measured. The term half-life denotes how long it takes for the measured level to halve.

The values are drawn from ChEMBL document CHEMBL5137080, “Discovery of Novel 7-Hydroxy-5-oxo-4,5-dihydrothieno[3,2-b]pyridine-6-carboxamide Derivatives with Potent and Selective Antifungal Activity against Cryptococcus Species” (J Med Chem, 2022).
